According to the NIST ThermoML archive (doi:10.1021/acs.jced.5b00612):
± gives the expanded uncertainty stated by the source.

Settings: Liquid

CCCCCCCCCCCCCC(=O)OCC [ethyl tetradecanoate]
viscosity [mPa·s]
Settings | 293.15 K | 313.15 K | 333.15 K | 353.15 K
101.3 kPa, Falling or rolling sphere viscometry | 4.73 ± 0.11 | 2.96 ± 0.07 | 2.03 ± 0.05 | 1.48 ± 0.03
101.3 kPa, quartz crystal resonator | 4.73 ± 0.11 | 2.96 ± 0.07 | 2.03 ± 0.05 | 1.48 ± 0.04
10000 kPa, quartz crystal resonator | 5.36 ± 0.12 | 3.34 ± 0.08 | 2.3 ± 0.05 | 1.65 ± 0.04
20000 kPa, Falling or rolling sphere viscometry | 6.1 ± 0.14 | 3.74 ± 0.08 | 2.53 ± 0.06 | 1.83 ± 0.04
20000 kPa, quartz crystal resonator | 6.08 ± 0.14 | 3.71 ± 0.09 | 2.54 ± 0.06 | 1.84 ± 0.04
30000 kPa, quartz crystal resonator | 6.83 ± 0.16 | 4.15 ± 0.1 | 2.82 ± 0.07 | 2.03 ± 0.05
40000 kPa, Falling or rolling sphere viscometry | 7.68 ± 0.17 | 4.64 ± 0.1 | 3.09 ± 0.07 | 2.22 ± 0.05
40000 kPa, quartz crystal resonator | 7.68 ± 0.18 | 4.63 ± 0.11 | 3.13 ± 0.07 | 2.24 ± 0.05
50000 kPa, quartz crystal resonator | – | 5.1 ± 0.12 | 3.44 ± 0.08 | 2.44 ± 0.06
60000 kPa, Falling or rolling sphere viscometry | – | 5.67 ± 0.13 | 3.73 ± 0.08 | 2.66 ± 0.06
60000 kPa, quartz crystal resonator | – | 5.67 ± 0.13 | 3.76 ± 0.09 | 2.66 ± 0.06
70000 kPa, quartz crystal resonator | – | 6.22 ± 0.14 | 4.08 ± 0.09 | 2.91 ± 0.07
80000 kPa, Falling or rolling sphere viscometry | – | 6.86 ± 0.15 | 4.46 ± 0.1 | 3.16 ± 0.07
80000 kPa, quartz crystal resonator | – | 6.89 ± 0.16 | 4.48 ± 0.1 | 3.14 ± 0.07
90000 kPa, quartz crystal resonator | – | 7.56 ± 0.17 | 4.86 ± 0.11 | 3.41 ± 0.08
100000 kPa, Falling or rolling sphere viscometry | – | 8.23 ± 0.18 | 5.27 ± 0.12 | 3.71 ± 0.08
100000 kPa, quartz crystal resonator | – | 8.14 ± 0.18 | 5.25 ± 0.12 | 3.66 ± 0.08

CCCCCCCCCCCCCC(=O)OC [methyl tetradecanoate]
viscosity [mPa·s]
Settings | 303.15 K | 313.15 K | 333.15 K | 353.15 K
101.3 kPa, Falling or rolling sphere viscometry | 3.51 ± 0.08 | 2.8 ± 0.06 | 1.91 ± 0.04 | 1.4 ± 0.03
101.3 kPa, quartz crystal resonator | 3.51 ± 0.08 | 2.8 ± 0.07 | 1.91 ± 0.05 | 1.4 ± 0.03
10000 kPa, quartz crystal resonator | 3.95 ± 0.09 | 3.15 ± 0.07 | 2.14 ± 0.05 | 1.57 ± 0.04
20000 kPa, Falling or rolling sphere viscometry | 4.43 ± 0.1 | 3.5 ± 0.08 | 2.37 ± 0.05 | 1.72 ± 0.04
20000 kPa, quartz crystal resonator | 4.45 ± 0.1 | 3.5 ± 0.08 | 2.37 ± 0.06 | 1.74 ± 0.04
30000 kPa, quartz crystal resonator | 4.95 ± 0.11 | 3.91 ± 0.09 | 2.61 ± 0.06 | 1.92 ± 0.05
40000 kPa, Falling or rolling sphere viscometry | 5.51 ± 0.12 | 4.31 ± 0.1 | 2.89 ± 0.06 | 2.08 ± 0.05
40000 kPa, quartz crystal resonator | 5.53 ± 0.13 | 4.33 ± 0.1 | 2.88 ± 0.07 | 2.11 ± 0.05
50000 kPa, quartz crystal resonator | 6.11 ± 0.14 | 4.79 ± 0.11 | 3.16 ± 0.07 | 2.29 ± 0.05
60000 kPa, Falling or rolling sphere viscometry | – | 5.24 ± 0.12 | 3.47 ± 0.08 | 2.47 ± 0.05
60000 kPa, quartz crystal resonator | 6.79 ± 0.16 | 5.26 ± 0.12 | 3.46 ± 0.08 | 2.5 ± 0.06
70000 kPa, quartz crystal resonator | – | 5.74 ± 0.13 | 3.76 ± 0.09 | 2.71 ± 0.06
80000 kPa, Falling or rolling sphere viscometry | – | 6.31 ± 0.14 | 4.11 ± 0.09 | 2.9 ± 0.06
80000 kPa, quartz crystal resonator | – | 6.29 ± 0.14 | 4.08 ± 0.09 | 2.92 ± 0.07
90000 kPa, quartz crystal resonator | – | – | 4.46 ± 0.1 | 3.14 ± 0.07
100000 kPa, Falling or rolling sphere viscometry | – | 7.54 ± 0.17 | 4.82 ± 0.11 | 3.38 ± 0.07
100000 kPa, quartz crystal resonator | – | – | 4.81 ± 0.11 | 3.4 ± 0.08
